# Article PMC8027391, “Fangchinoline suppresses conjunctival melanoma by directly binding FUBP2 and inhibiting the homologous recombination pathway” (Cell Death & Disease, 2021)
# Counter-ions that a name gives are not always drawn. Like-named read-outs stand apart in the source and are kept apart here.
# Tests used:
# [1] = biological target: T1, far upstream element binding protein 2 (FUBP2) (Homo sapiens, UniProt Q92945); experiment: microscale thermophoresis (MST, Monolith NT.[…]) with EGFP-labelled FUBP2 from transfected HEK293T cells
# T1 construct: gene KHSRP; FUBP2 labelled with enhanced green fluorescent protein, obtained from HEK293T cells transfected with plasmids
# T1 sequence (Q92945 2-711): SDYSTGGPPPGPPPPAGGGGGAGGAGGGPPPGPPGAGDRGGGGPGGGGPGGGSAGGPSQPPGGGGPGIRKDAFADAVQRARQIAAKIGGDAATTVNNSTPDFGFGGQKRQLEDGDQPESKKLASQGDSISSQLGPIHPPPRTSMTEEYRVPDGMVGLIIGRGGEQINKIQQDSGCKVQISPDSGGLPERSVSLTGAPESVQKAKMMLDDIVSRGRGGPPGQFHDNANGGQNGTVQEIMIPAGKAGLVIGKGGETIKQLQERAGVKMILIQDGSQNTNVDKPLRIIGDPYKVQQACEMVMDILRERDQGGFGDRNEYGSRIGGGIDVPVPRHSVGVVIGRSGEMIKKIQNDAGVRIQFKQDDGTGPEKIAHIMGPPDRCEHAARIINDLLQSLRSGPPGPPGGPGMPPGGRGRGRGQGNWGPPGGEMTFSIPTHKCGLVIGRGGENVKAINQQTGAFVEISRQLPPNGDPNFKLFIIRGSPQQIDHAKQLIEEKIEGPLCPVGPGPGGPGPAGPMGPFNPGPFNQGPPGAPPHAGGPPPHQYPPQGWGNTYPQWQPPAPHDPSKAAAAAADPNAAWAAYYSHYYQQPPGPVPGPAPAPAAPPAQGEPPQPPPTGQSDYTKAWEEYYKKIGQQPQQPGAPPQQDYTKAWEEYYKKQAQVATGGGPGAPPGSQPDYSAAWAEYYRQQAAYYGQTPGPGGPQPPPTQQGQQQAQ
# CM-AS16 = experiment: cells; design: CCK-8 anti-proliferation assay in conjunctival melanoma cell lines
# Method: (§1) The anti-proliferative activity of our in-house drugs against CM-AS16 cells was assessed using the Cell Counting Kit-8 (CCK-8) assay at a final concentration of 10 μM (Fig. 1A). […] These analogues were Chinese herbal monomers harbouring the same bisbenzylisoquinoline core. […] Fangchinoline harbours an exposed hydroxy group, which is suitable for synthesizing functionalized probes and subsequent target identification. […] Next, we assessed the anti-proliferative activity of fangchinoline against three other CM cell lines obtained from patients with a typical NRAS (CRMM2) or BRAF mutation (CRMM1 and CM2005.1)[26],[27]. […] To determine whether fangchinoline could suppress CM properties in vivo, an immunodeficient NCG mice xenograft model was created by subcutaneous inoculation of CM-AS16 cells. NCG mice comes from knocking out the Prkdc and IL2rg genes in NOD/ShiltJ mice through Crispr Cas9 technology. […] The average tumour volume of the control group was 204 mm^3, which was higher than that of the treated groups (50 mg/kg/day fangchinoline, tumour volume: […] CRMM1, CRMM2 and CM2005.1 were generously provided by Professor Martine J. Jager (Leiden University Medical Center, Leiden, The Netherlands)[47] and CM-AS16 was provided by Professor Renbin Jia (Shanghai Ninth People’s Hospital, Shanghai, China). A375 and HEK293T were obtained from American Type Culture Collection. CM-AS16 and CM2005.1 were maintained in 1640H medium, CRMM1 and CRMM2 were maintained in F12K medium, A375 and HEK293T were maintained in DMEM medium, and MRC5 was maintained in MEM medium. All mediums were supplemented with 10% FBS. Cells were cultured at 37 °C in an incubator, in a humidified atmosphere with 5% CO2, periodically checked for mycoplasma-free and validated by short tandem repeats (STR) DNA analysis at BGI Tech Solutions (Beijing Liuhe) Co., Limited.
# CM2005.1 = experiment: cells; design: CCK-8 anti-proliferation assay in conjunctival melanoma cell lines
# Method: as §1
# CRMM1 = experiment: cells; design: CCK-8 anti-proliferation assay in conjunctival melanoma cell lines
# Method: as §1
# CRMM2 = experiment: cells; design: CCK-8 anti-proliferation assay in conjunctival melanoma cell lines
# Method: as §1
# in vitro = experiment: in vitro; design: CCK-8 growth inhibition of MRC5 normal fibroblasts (counter-screen); conditions: human, mrc5 cells
# Method: as §1
# [2] = CM-AS16; read-out: IC50 (μM) CM-AS16
# [3] = CM2005.1; read-out: IC50 (μM) CM2005.1
# [4] = Homo sapiens, CRMM-1; read-out: IC50 (μM) CRMM1
# [5] = Homo sapiens, CRMM-2; read-out: IC50 (μM) CRMM2
SMILES,Kd [1] [µM],IC50 (CM-AS16; [2]) [µM],IC50 (CM2005.1; [3]) [µM],IC50 (CRMM1; [4]) [µM],IC50 (CRMM2; [5]) [µM],CC50 (in vitro; read-out: IC50 (μM) MRC5) [µM],"IC50 (CM-AS16; CM-AS16, read-out: IC50 (μM) CM-AS16) [µM]","IC50 (CM2005.1; CM2005.1, read-out: IC50 (μM) CM2005.1) [µM]","IC50 (CRMM1; Homo sapiens, CRMM-1, read-out: IC50 (μM) CRMM1) [µM]","IC50 (CRMM2; Homo sapiens, CRMM-2, read-out: IC50 (μM) CRMM2) [µM]",CC50 (in vitro) [µM]
COc1ccc2cc1Oc1ccc(cc1)C[C@H]1c3cc(c(OC)cc3CCN1C)Oc1c(O)c(OC)cc3c1[C@H](C2)N(C)CC3 [fangchinoline],246,5.67 ± 0.17,7.4 ± 0.45,2.68 ± 0.07,3.6 ± 0.05,4.35 ± 0.11,–,–,–,–,–
COc1ccc2cc1Oc1ccc(cc1)C[C@H]1c3c(cc4c(c3Oc3cc5c(cc3OC)CCN(C)[C@@H]5C2)OCO4)CCN1C [Cepharanthine],–,1.63 ± 0.24,7.44 ± 0.08,4.69 ± 0.17,0.792 ± 0.013,8.44 ± 0.54,–,–,–,–,–
COc1cc2c3cc1Oc1c(OC)c(OC)cc4c1[C@@H](Cc1cccc(c1)Oc1ccc(c(O)c1)C[C@@H]3N(C)CC2)N(C)CC4 [Berbamine Hydrochloride],–,–,–,–,–,–,8.46 ± 0.22,20.2 ± 0.49,8.16 ± 0.13,4.14 ± 0.5,9.03 ± 0.22
COc1ccc2cc1Oc1ccc(cc1)C[C@H]1c3cc(c(OC)cc3CCN1C)Oc1c(OC)c(OC)cc3c1[C@H](C2)N(C)CC3 [Tetrandrine],–,3.2 ± 0.06,9.7 ± 0.07,4.77 ± 0.24,2.16 ± 0.02,5.75 ± 0.11,–,–,–,–,–
Cn1cnc2c(F)c(Nc3ccc(Br)cc3F)c(C(=O)NOCCO)cc21 [MEK162],–,0.0077 ± 0.0016,0.068 ± 0.008,> 50,0.0136 ± 0.0006,6.32 ± 0.16,–,–,–,–,–
